{"source": "paper PMC4853478", "about": "(Nature Communications, 2016)", "key": {"HsPRC2_4 [1]": {"target": "T1, HsPRC2_4 (Homo sapiens, UniProt Q15910)", "T1 construct": "intact HsPRC2_4 (full-length EZH2 (EZH2_FL) and SUZ12 co-migrate on SDS-PAGE); made in house; host or cells: Sf9 insect cells (baculovirus co-infection)", "test": "Radioactive filter-binding histone methyltransferase assay, intact HsPRC2_4, oligonucleosome substrate", "type": "biochemical", "description": "(§1) (Prism, Graphpad Software Inc.)."}, "HsPRC2_4 (Y641N)": {"target": "T2, HsPRC2_4 (Y641N) (Homo sapiens, UniProt Q15910, Y641N)", "T2 construct": "intact HsPRC2_4 (full-length EZH2 (EZH2_FL) and SUZ12 co-migrate on SDS-PAGE); made in house; host or cells: Sf9 insect cells (baculovirus co-infection)", "T2 sequence (Q15910 whole entry Y641N)": "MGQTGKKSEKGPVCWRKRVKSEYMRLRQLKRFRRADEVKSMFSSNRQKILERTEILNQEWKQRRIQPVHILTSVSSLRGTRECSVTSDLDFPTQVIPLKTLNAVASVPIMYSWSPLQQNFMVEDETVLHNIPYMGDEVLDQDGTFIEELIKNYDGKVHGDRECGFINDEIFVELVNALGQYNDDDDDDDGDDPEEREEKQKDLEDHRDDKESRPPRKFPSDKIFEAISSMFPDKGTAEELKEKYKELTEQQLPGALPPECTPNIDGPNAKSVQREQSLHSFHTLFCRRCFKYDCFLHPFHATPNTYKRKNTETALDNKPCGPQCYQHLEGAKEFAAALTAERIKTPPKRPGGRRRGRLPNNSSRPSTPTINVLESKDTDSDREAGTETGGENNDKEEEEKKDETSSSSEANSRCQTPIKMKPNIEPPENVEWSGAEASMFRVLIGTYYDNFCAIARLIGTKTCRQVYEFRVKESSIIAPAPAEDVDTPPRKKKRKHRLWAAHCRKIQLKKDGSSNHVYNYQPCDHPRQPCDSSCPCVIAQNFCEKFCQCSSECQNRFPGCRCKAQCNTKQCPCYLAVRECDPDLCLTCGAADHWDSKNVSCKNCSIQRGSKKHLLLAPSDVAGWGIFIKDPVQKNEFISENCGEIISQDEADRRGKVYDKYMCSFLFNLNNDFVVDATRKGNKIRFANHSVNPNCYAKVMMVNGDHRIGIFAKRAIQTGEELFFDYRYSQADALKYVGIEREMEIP", "T2 sequence (O75530 whole entry partner)": "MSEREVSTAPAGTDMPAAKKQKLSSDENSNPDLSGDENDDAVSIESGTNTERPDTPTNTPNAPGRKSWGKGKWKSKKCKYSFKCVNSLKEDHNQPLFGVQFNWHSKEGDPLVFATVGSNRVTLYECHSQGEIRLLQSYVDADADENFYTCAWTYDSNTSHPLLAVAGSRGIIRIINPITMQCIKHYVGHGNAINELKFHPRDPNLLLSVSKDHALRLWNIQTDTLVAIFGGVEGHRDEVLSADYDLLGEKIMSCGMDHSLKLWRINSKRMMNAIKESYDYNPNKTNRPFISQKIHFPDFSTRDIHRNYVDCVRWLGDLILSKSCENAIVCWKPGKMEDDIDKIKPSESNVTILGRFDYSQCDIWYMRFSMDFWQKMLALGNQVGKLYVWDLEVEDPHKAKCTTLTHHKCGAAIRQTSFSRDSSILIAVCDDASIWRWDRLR", "T2 sequence (Q15022 whole entry partner)": "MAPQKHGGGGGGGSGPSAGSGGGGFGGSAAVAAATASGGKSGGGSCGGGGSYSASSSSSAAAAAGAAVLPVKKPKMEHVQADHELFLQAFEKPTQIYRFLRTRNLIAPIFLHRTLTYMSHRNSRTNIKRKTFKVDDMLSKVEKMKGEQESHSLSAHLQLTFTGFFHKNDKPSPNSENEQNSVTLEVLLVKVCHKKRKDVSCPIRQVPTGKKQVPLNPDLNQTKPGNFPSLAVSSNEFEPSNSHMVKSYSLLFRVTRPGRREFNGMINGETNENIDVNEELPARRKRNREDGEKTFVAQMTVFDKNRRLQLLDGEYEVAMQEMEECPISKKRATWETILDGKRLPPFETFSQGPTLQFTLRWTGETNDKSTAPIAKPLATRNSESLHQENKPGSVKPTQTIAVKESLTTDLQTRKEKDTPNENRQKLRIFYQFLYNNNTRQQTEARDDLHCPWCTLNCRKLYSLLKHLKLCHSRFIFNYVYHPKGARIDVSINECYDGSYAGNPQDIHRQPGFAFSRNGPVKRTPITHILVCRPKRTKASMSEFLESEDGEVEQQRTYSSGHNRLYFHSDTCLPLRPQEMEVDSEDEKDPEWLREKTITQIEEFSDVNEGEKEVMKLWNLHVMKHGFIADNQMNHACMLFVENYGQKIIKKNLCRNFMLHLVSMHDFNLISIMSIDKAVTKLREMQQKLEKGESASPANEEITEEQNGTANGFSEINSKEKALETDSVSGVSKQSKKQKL", "T2 sequence (Q09028 whole entry partner)": "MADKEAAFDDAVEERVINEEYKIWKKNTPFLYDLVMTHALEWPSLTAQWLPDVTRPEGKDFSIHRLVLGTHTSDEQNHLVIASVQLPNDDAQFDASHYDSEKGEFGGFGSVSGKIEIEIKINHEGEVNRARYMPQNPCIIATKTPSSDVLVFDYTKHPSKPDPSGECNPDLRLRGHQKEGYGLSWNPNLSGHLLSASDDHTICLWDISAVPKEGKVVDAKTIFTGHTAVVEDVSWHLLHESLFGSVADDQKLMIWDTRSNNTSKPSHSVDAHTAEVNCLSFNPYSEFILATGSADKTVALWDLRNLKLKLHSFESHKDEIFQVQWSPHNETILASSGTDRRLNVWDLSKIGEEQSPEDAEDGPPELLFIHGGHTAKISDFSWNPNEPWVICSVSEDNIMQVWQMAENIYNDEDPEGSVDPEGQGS", "test": "Radioactive filter-binding histone methyltransferase assay, HsPRC2_4 (Y641N), oligonucleosome substrate", "type": "biochemical", "description": "as §1"}, "HsPRC2_4 (Y641N/Y661D)": {"target": "T3, HsPRC2_4 (Y641N/Y661D) (Homo sapiens, UniProt Q15910, Y641N/Y661D)", "T3 construct": "intact HsPRC2_4 (full-length EZH2 (EZH2_FL) and SUZ12 co-migrate on SDS-PAGE); made in house; host or cells: Sf9 insect cells (baculovirus co-infection)", "T3 sequence (Q15910 whole entry Y641N/Y661D)": "as the sequence (Q15910 whole entry Y641N) above, with Y661D counted along it", "T3 sequence (O75530 whole entry partner)": "as the sequence (O75530 whole entry partner) above", "T3 sequence (Q15022 whole entry partner)": "as the sequence (Q15022 whole entry partner) above", "T3 sequence (Q09028 whole entry partner)": "as the sequence (Q09028 whole entry partner) above", "test": "Radioactive filter-binding histone methyltransferase assay, HsPRC2_4 (Y641N/Y661D), oligonucleosome substrate", "type": "biochemical", "description": "as §1"}, "HsPRC2_4 (Y111L)": {"target": "T4, HsPRC2_4 (Y111L) (Homo sapiens, UniProt Q15910, Y111L)", "T4 construct": "intact HsPRC2_4 (full-length EZH2 (EZH2_FL) and SUZ12 co-migrate on SDS-PAGE); made in house; host or cells: Sf9 insect cells (baculovirus co-infection)", "T4 sequence (Q15910 whole entry Y111L)": "as the sequence (Q15910 whole entry Y641N) above, with Y111L, N641Y counted along it", "T4 sequence (O75530 whole entry partner)": "as the sequence (O75530 whole entry partner) above", "T4 sequence (Q15022 whole entry partner)": "as the sequence (Q15022 whole entry partner) above", "T4 sequence (Q09028 whole entry partner)": "as the sequence (Q09028 whole entry partner) above", "test": "Radioactive filter-binding histone methyltransferase assay, HsPRC2_4 (Y111L), oligonucleosome substrate", "type": "biochemical", "description": "as §1"}, "HsPRC2_4 [2]": {"target": "T1, HsPRC2_4", "test": "Inhibition of basal and activated states of HsPRC2_4", "type": "biochemical", "conditions": "for Ki: SAM above Km, mean of two independent experiments"}, "Hs/AcPRC2_X": {"target": "Hs/AcPRC2_X (Anolis carolinensis, UniProt G1KPH4, DEL368-454, form not given)", "sequence (G1KPH4 entry or part of it DEL368-454, form open)": "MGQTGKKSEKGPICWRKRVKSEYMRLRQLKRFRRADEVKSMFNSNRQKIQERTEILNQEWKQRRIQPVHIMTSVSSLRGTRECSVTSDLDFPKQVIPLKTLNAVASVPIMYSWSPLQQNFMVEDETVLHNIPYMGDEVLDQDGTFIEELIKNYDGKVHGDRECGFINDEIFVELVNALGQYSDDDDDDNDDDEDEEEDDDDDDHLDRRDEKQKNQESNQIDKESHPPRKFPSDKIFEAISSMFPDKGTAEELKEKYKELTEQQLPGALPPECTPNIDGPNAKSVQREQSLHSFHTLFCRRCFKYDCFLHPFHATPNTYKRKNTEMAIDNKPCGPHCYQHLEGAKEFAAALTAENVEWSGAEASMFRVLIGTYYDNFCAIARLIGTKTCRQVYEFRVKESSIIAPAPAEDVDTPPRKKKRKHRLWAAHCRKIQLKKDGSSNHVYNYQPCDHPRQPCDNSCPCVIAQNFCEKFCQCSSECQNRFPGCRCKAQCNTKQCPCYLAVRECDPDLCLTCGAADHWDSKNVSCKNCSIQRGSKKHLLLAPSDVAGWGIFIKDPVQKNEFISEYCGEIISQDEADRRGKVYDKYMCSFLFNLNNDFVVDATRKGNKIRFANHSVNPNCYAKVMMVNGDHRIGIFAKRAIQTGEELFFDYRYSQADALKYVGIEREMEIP", "sequence (Q15022 545-726 S583D, form open, further chain)": "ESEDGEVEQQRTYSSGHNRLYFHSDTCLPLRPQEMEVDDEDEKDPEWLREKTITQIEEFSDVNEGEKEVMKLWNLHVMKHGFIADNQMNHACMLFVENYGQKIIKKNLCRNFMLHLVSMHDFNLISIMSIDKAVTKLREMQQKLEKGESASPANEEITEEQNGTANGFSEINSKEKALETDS", "sequence (O75530 81-441, stated change not applied, form open, further chain)": "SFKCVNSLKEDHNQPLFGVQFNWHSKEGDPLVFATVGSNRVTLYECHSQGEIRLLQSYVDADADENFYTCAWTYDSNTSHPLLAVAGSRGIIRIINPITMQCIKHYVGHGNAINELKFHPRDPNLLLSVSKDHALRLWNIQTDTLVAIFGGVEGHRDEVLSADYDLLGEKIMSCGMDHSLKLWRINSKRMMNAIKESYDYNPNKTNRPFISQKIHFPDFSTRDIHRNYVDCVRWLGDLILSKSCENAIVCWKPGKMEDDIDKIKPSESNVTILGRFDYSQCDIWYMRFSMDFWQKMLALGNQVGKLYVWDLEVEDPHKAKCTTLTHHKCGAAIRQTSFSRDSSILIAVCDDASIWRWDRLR", "conditions": "rH3 substrate; n=2, mean±s.d."}, "PRC2": {"target": "PRC2", "set-up": "method as in PMID 24304166", "conditions": "activated versus basal PRC2; cited from earlier work"}, "[3]": {"conditions": "oligonucleosome substrate, n=2, mean±s.d."}}}
{"smiles": "CCc1cc(C)[nH]c(=O)c1CN1CCc2c(Cl)cc(OC3CCN(C(=O)C(C)O)CC3)c(Cl)c2C1=O", "note": "(stereo not drawn) [inhibitor 1]", "values": [{"measurement": "Mode of inhibition (IC50 as a function of (SAM)/Km)", "setting": "HsPRC2_4 [1]; HsPRC2_4, linear relationship of IC50 with (SAM)/Km, two independent experiments", "result": "SAM-competitive"}, {"measurement": "Ki", "setting": "HsPRC2_4 [1]; [3]", "result": "1.63 ± 0.13", "unit": "nM"}, {"measurement": "Sensitivity to inhibitor", "setting": "HsPRC2_4 (Y641N); Y641N HsPRC2_4", "result": "sensitive"}, {"measurement": "Ki", "setting": "HsPRC2_4 (Y641N); [3]", "result": "4.56 ± 0.16", "unit": "nM"}, {"measurement": "Biochemical inhibition", "setting": "HsPRC2_4 (Y641N/Y661D); Y641N/Y661D HsPRC2_4", "result": "refractory"}, {"measurement": "Ki", "setting": "HsPRC2_4 (Y641N/Y661D); [3]", "result": "204 ± 16", "unit": "nM"}, {"measurement": "Biochemical inhibition", "setting": "HsPRC2_4 (Y111L); Y111L HsPRC2_4", "result": "refractory"}, {"measurement": "Ki", "setting": "HsPRC2_4 (Y111L); [3]", "result": "116.4 ± 0.7", "unit": "nM"}, {"measurement": "Inhibition profile, basal versus stimulated state", "setting": "HsPRC2_4 [2]; basal and stimulated states of HsPRC2_4", "result": "almost identical"}, {"measurement": "Ki", "setting": "HsPRC2_4 [2]; in the presence of the activator peptide H3K27Me3 (21-44)", "result": 0.65, "unit": "nM"}, {"measurement": "Ki", "setting": "HsPRC2_4 [2]; no activator", "result": 0.89, "unit": "nM"}, {"measurement": "Ki", "setting": "Hs/AcPRC2_X", "result": "3.1 ± 0.11", "unit": "nM"}]}
{"smiles": "C[S+](CC[C@H](N)C(=O)[O-])C[C@H]1O[C@@H](n2cnc3c(N)ncnc32)[C@H](O)[C@@H]1O", "note": "(stereo partly drawn) [SAM, S-adenosyl-L-methionine, reference compound]", "values": [{"measurement": "Km", "setting": "HsPRC2_4 [2]; intact HsPRC2_4 complex, read-out: Km, SAM", "result": 1500, "unit": "nM"}]}
{"smiles": "CC[C@H](C)n1cc(C)c2c(C(=O)NCc3c(C)cc(C)[nH]c3=O)cc(-c3ccc(N4CCNCC4)nc3)cc21", "note": "[GSK126]", "values": [{"measurement": "Ki on activation of PRC2 by H3K27Me3 mark", "setting": "PRC2", "result": "lower"}, {"measurement": "Residence time on activation of PRC2 by H3K27Me3 mark", "setting": "PRC2", "result": "increased"}]}
